Experimental data: patent US7138361B2, “Herbicidal heterocycles” (E. I. du Pont de Nemours and Company, priority 2000, dated 2006)

Legend:
Test in all cases: Test C postemergence
Type in all cases: in vivo
soybean (Glycine max) = system: soybean (Glycine max)
Outline: (§1)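 Seeds are planted and treated before emergence; for the postemergence test, plants at 1- to 4-leaf stage (2–18 cm) receive the same formulation, a solvent blend containing surfactant. Plants stay in the greenhouse 12–14 days, then response is scored visually from 0 (none) to 100 (complete control).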

[1] = system: crabgrass (Digitaria sanguinalis)
Outline: as §1

[2] = system: yellow nutsedge (Cyperus esculentus)
Outline: as §1

[3] = system: woolly cupgrass (Eriochloa villosa)
Outline: as §1

[4] = system: chickweed (Stellaria media)
Outline: as §1

[5] = system: cocklebur (Xanthium strumarium)
Outline: as §1

[6] = system: goosegrass (Eleusine indica)
Outline: as §1

kochia (Kochia scoparia) = system: kochia (Kochia scoparia)
Outline: as §1

[7] = system: johnsongrass (Sorghum halepense)
Outline: as §1

[8] = system: velvetleaf (Abutilon theophrasti)
Outline: as §1

[9] = Rate 125 g/ha, scale 0 to 100, 0 no effect, 100 complete control
[10] = Rate 62 g/ha, scale 0 to 100, 0 no effect, 100 complete control
[11] = Rate 250 g/ha, scale 0 to 100 (0 no effect, 100 complete control)
[12] = Rate 500 g/ha, scale 0 to 100 (0 no effect, 100 complete control)

CCC(CC)c1ccn(C2SCN(c3cccc(C(F)(F)F)c3)C2=O)n1 (stereo not shown) [Compound 21]
Plant response rating, Soybean (soybean (Glycine max); Rate 31 g/ha, scale 0 to 100): 0
Plant response rating, Soybean (soybean (Glycine max); [9]): 30
Plant response rating, Crabgrass ([1]; Rate 31 g/ha, scale 0 to 100): 0
Plant response rating, Crabgrass [1, 9]: 0
Plant response rating, Nutsedge ([2]; Rate 31 g/ha, scale 0 to 100): 0
Plant response rating, Nutsedge [2, 9]: 0
Plant response rating, Cupgrass, Woolly ([3]; Rate 31 g/ha, scale 0 to 100): 0
Plant response rating, Cupgrass, Woolly [3, 9]: 0
Plant response rating, Chickweed ([4]; Rate 31 g/ha, scale 0 to 100): 30
Plant response rating, Chickweed [4, 10]: 50
Plant response rating, Chickweed [4, 9]: 50
Plant response rating, Cocklebur ([5]; Rate 31 g/ha, scale 0 to 100): 20
Plant response rating, Cocklebur [5, 9]: 30
Plant response rating, Goosegrass ([6]; Rate 31 g/ha, scale 0 to 100): 0
Plant response rating, Goosegrass [6, 9]: 0
Plant response rating, Kochia (kochia (Kochia scoparia); Rate 31 g/ha, scale 0 to 100): 30
Plant response rating, Kochia (kochia (Kochia scoparia); [9]): 40
Plant response rating, Johnsongrass ([7]; Rate 31 g/ha, scale 0 to 100): 0
Plant response rating, Johnsongrass [7, 9]: 50
Plant response rating, Velvetleaf ([8]; Rate 31 g/ha, scale 0 to 100): 20
Plant response rating, Velvetleaf [8, 9]: 30

CCOc1cc(N2CCC(n3ccc(C(C)(C)C)n3)C2=O)ccc1C (stereo not shown) [Compound 106]
Plant response rating, Soybean (soybean (Glycine max); Rate 31 g/ha, scale 0 to 100): 70
Plant response rating, Soybean (soybean (Glycine max); Rate 62 g/ha, scale 0 to 100): 70
Plant response rating, Soybean (soybean (Glycine max); [9]): 70
Plant response rating, Soybean (soybean (Glycine max); [11]): 80
Plant response rating, Crabgrass ([1]; Rate 31 g/ha, scale 0 to 100): 0
Plant response rating, Crabgrass ([1]; Rate 62 g/ha, scale 0 to 100): 0
Plant response rating, Crabgrass [1, 9]: 0
Plant response rating, Crabgrass [1, 11]: 0
Plant response rating, Nutsedge ([2]; Rate 31 g/ha, scale 0 to 100): 0
Plant response rating, Nutsedge ([2]; Rate 62 g/ha, scale 0 to 100): 0
Plant response rating, Nutsedge [2, 9]: 0
Plant response rating, Nutsedge [2, 11]: 0
Plant response rating, Cupgrass, Woolly ([3]; Rate 31 g/ha, scale 0 to 100): 0
Plant response rating, Cupgrass, Woolly ([3]; Rate 62 g/ha, scale 0 to 100): 10
Plant response rating, Cupgrass, Woolly [3, 9]: 30
Plant response rating, Cupgrass, Woolly [3, 11]: 40
Plant response rating, Cocklebur ([5]; Rate 31 g/ha, scale 0 to 100): 30
Plant response rating, Cocklebur ([5]; Rate 62 g/ha, scale 0 to 100): 30
Plant response rating, Cocklebur [5, 9]: 80
Plant response rating, Cocklebur [5, 11]: 90
Plant response rating, Goosegrass ([6]; Rate 31 g/ha, scale 0 to 100): 0
Plant response rating, Goosegrass ([6]; Rate 62 g/ha, scale 0 to 100): 0
Plant response rating, Goosegrass [6, 9]: 0
Plant response rating, Goosegrass [6, 11]: 10
Plant response rating, Kochia (kochia (Kochia scoparia); Rate 31 g/ha, scale 0 to 100): 70
Plant response rating, Kochia (kochia (Kochia scoparia); Rate 62 g/ha, scale 0 to 100): 70
Plant response rating, Kochia (kochia (Kochia scoparia); [9]): 90
Plant response rating, Kochia (kochia (Kochia scoparia); [11]): 100
Plant response rating, Johnsongrass ([7]; Rate 31 g/ha, scale 0 to 100): 0
Plant response rating, Johnsongrass ([7]; Rate 62 g/ha, scale 0 to 100): 0
Plant response rating, Johnsongrass [7, 9]: 0
Plant response rating, Johnsongrass [7, 11]: 0
Plant response rating, Velvetleaf ([8]; Rate 31 g/ha, scale 0 to 100): 30
Plant response rating, Velvetleaf ([8]; Rate 62 g/ha, scale 0 to 100): 60
Plant response rating, Velvetleaf [8, 9]: 60
Plant response rating, Velvetleaf [8, 11]: 70

CCCC(C)c1ccn(C2CCN(c3ccc(Cl)c(OC)c3)C2=O)n1 (stereo not shown) [Compound 121]
Plant response rating, Soybean (soybean (Glycine max); Rate 62 g/ha, scale 0 to 100): 50
Plant response rating, Soybean (soybean (Glycine max); [11]): 60
Plant response rating, Soybean (soybean (Glycine max); [12]): 70
Plant response rating, Crabgrass ([1]; Rate 62 g/ha, scale 0 to 100): 0
Plant response rating, Crabgrass [1, 11]: 40
Plant response rating, Crabgrass [1, 12]: 60
Plant response rating, Nutsedge ([2]; Rate 62 g/ha, scale 0 to 100): 0
Plant response rating, Nutsedge [2, 11]: 0
Plant response rating, Nutsedge [2, 12]: 0
Plant response rating, Cupgrass, Woolly ([3]; Rate 62 g/ha, scale 0 to 100): 0
Plant response rating, Cupgrass, Woolly [3, 11]: 30
Plant response rating, Cupgrass, Woolly [3, 12]: 60
Plant response rating, Cocklebur ([5]; Rate 62 g/ha, scale 0 to 100): 0
Plant response rating, Cocklebur [5, 11]: 20
Plant response rating, Cocklebur [5, 12]: 40
Plant response rating, Goosegrass ([6]; Rate 62 g/ha, scale 0 to 100): 0
Plant response rating, Goosegrass [6, 11]: 20
Plant response rating, Goosegrass [6, 12]: 50
Plant response rating, Kochia (kochia (Kochia scoparia); Rate 62 g/ha, scale 0 to 100): 70
Plant response rating, Kochia (kochia (Kochia scoparia); [11]): 70
Plant response rating, Kochia (kochia (Kochia scoparia); [12]): 90
Plant response rating, Johnsongrass ([7]; Rate 62 g/ha, scale 0 to 100): 0
Plant response rating, Johnsongrass [7, 11]: 0
Plant response rating, Johnsongrass [7, 12]: 0
Plant response rating, Johnsongrass ([7]; rate not given, scale 0 to 100): 0
Plant response rating, Velvetleaf ([8]; Rate 62 g/ha, scale 0 to 100): 0
Plant response rating, Velvetleaf [8, 11]: 20
Plant response rating, Velvetleaf [8, 12]: 40
Plant response rating, Velvetleaf ([8]; scale 0 to 100): 0

O=C1C(n2ccc(C3CCC3)n2)SCN1c1cccc(C(F)(F)F)c1 (stereo not shown) [Compound 37]
Plant response rating, Soybean (soybean (Glycine max); Rate 31 g/ha, scale 0 to 100): 0
Plant response rating, Soybean (soybean (Glycine max); [9]): 0
Plant response rating, Soybean (soybean (Glycine max); [11]): 0
Plant response rating, Crabgrass ([1]; Rate 31 g/ha, scale 0 to 100): 0
Plant response rating, Crabgrass [1, 9]: 0
Plant response rating, Crabgrass [1, 11]: 0
Plant response rating, Nutsedge ([2]; Rate 31 g/ha, scale 0 to 100): 0
Plant response rating, Nutsedge [2, 9]: 0
Plant response rating, Nutsedge [2, 11]: 0
Plant response rating, Cupgrass, Woolly ([3]; Rate 31 g/ha, scale 0 to 100): 0
Plant response rating, Cupgrass, Woolly [3, 9]: 0
Plant response rating, Cupgrass, Woolly [3, 11]: 0
Plant response rating, Chickweed ([4]; Rate 31 g/ha, scale 0 to 100): 0
Plant response rating, Chickweed [4, 10]: 0
Plant response rating, Chickweed [4, 9]: 0
Plant response rating, Chickweed [4, 11]: 0
Plant response rating, Cocklebur ([5]; Rate 31 g/ha, scale 0 to 100): 0
Plant response rating, Cocklebur [5, 9]: 0
Plant response rating, Cocklebur [5, 11]: 0
Plant response rating, Goosegrass ([6]; Rate 31 g/ha, scale 0 to 100): 0
Plant response rating, Goosegrass [6, 9]: 0
Plant response rating, Goosegrass [6, 11]: 0
Plant response rating, Kochia (kochia (Kochia scoparia); Rate 31 g/ha, scale 0 to 100): 0
Plant response rating, Kochia (kochia (Kochia scoparia); [9]): 20
Plant response rating, Kochia (kochia (Kochia scoparia); [11]): 70
Plant response rating, Johnsongrass ([7]; Rate 31 g/ha, scale 0 to 100): 0
Plant response rating, Johnsongrass [7, 9]: 0
Plant response rating, Johnsongrass [7, 11]: 0
Plant response rating, Velvetleaf ([8]; Rate 31 g/ha, scale 0 to 100): 0
Plant response rating, Velvetleaf [8, 9]: 0
Plant response rating, Velvetleaf [8, 11]: 0

COc1cc(N2CCC(n3ccc(C(C)C)n3)C2=O)ccc1Cl (stereo not shown) [Compound 120]
Plant response rating, Soybean (soybean (Glycine max); Rate 62 g/ha, scale 0 to 100): 30
Plant response rating, Soybean (soybean (Glycine max); [11]): 60
Plant response rating, Soybean (soybean (Glycine max); [12]): 60
Plant response rating, Crabgrass ([1]; Rate 62 g/ha, scale 0 to 100): 0
Plant response rating, Crabgrass [1, 11]: 40
Plant response rating, Crabgrass [1, 12]: 90
Plant response rating, Nutsedge ([2]; Rate 62 g/ha, scale 0 to 100): 0
Plant response rating, Nutsedge [2, 11]: 0
Plant response rating, Nutsedge [2, 12]: 50
Plant response rating, Cupgrass, Woolly ([3]; Rate 62 g/ha, scale 0 to 100): 0
Plant response rating, Cupgrass, Woolly [3, 11]: 0
Plant response rating, Cupgrass, Woolly [3, 12]: 0
Plant response rating, Cocklebur ([5]; Rate 62 g/ha, scale 0 to 100): 0
Plant response rating, Cocklebur [5, 11]: 80
Plant response rating, Cocklebur [5, 12]: 90
Plant response rating, Goosegrass ([6]; Rate 62 g/ha, scale 0 to 100): 0
Plant response rating, Goosegrass [6, 11]: 0
Plant response rating, Goosegrass [6, 12]: 60
Plant response rating, Kochia (kochia (Kochia scoparia); Rate 62 g/ha, scale 0 to 100): 50
Plant response rating, Kochia (kochia (Kochia scoparia); [11]): 90
Plant response rating, Kochia (kochia (Kochia scoparia); [12]): 90
Plant response rating, Johnsongrass ([7]; Rate 62 g/ha, scale 0 to 100): 0
Plant response rating, Johnsongrass [7, 11]: 0
Plant response rating, Johnsongrass [7, 12]: 0
Plant response rating, Johnsongrass ([7]; rate not given, scale 0 to 100): 0
Plant response rating, Velvetleaf ([8]; Rate 62 g/ha, scale 0 to 100): 0
Plant response rating, Velvetleaf [8, 11]: 0
Plant response rating, Velvetleaf [8, 12]: 0
Plant response rating, Velvetleaf ([8]; scale 0 to 100): 0

Cc1ccc(N2CCC(n3ccc(C(C)(C)C)n3)C2=O)cc1I (stereo not shown) [Compound 122]
Plant response rating, Soybean (soybean (Glycine max); Rate 62 g/ha, scale 0 to 100): 40
Plant response rating, Soybean (soybean (Glycine max); [11]): 50
Plant response rating, Soybean (soybean (Glycine max); [12]): 60
Plant response rating, Crabgrass ([1]; Rate 62 g/ha, scale 0 to 100): 0
Plant response rating, Crabgrass [1, 11]: 0
Plant response rating, Crabgrass [1, 12]: 0
Plant response rating, Nutsedge ([2]; Rate 62 g/ha, scale 0 to 100): 0
Plant response rating, Nutsedge [2, 11]: 0
Plant response rating, Nutsedge [2, 12]: 0
Plant response rating, Cupgrass, Woolly ([3]; Rate 62 g/ha, scale 0 to 100): 0
Plant response rating, Cupgrass, Woolly [3, 11]: 20
Plant response rating, Cupgrass, Woolly [3, 12]: 20
Plant response rating, Cocklebur ([5]; Rate 62 g/ha, scale 0 to 100): 20
Plant response rating, Cocklebur [5, 11]: 40
Plant response rating, Cocklebur [5, 12]: 70
Plant response rating, Goosegrass ([6]; Rate 62 g/ha, scale 0 to 100): 0
Plant response rating, Goosegrass [6, 11]: 0
Plant response rating, Goosegrass [6, 12]: 0
Plant response rating, Kochia (kochia (Kochia scoparia); Rate 62 g/ha, scale 0 to 100): 90
Plant response rating, Kochia (kochia (Kochia scoparia); [11]): 100
Plant response rating, Kochia (kochia (Kochia scoparia); [12]): 100
Plant response rating, Johnsongrass ([7]; Rate 62 g/ha, scale 0 to 100): 0
Plant response rating, Johnsongrass [7, 11]: 0
Plant response rating, Johnsongrass [7, 12]: 0
Plant response rating, Johnsongrass ([7]; rate not given, scale 0 to 100): 0
Plant response rating, Velvetleaf ([8]; Rate 62 g/ha, scale 0 to 100): 0
Plant response rating, Velvetleaf [8, 11]: 0
Plant response rating, Velvetleaf [8, 12]: 20
Plant response rating, Velvetleaf ([8]; scale 0 to 100): 0
